# Source: patent publication US20100040607A1, “Combination Therapy with Inhibitors of HMGB and Caspase for the Treatment of Inflammatory Diseases” (priority 2005, published 2010)
# Peptide text beside a SMILES is read from it. * marks the point of attachment. Cbz = O=C(OCc1ccccc1)*; CH2F = FC*
# How the values were obtained:
# IL-6, KC, MIP-2 = test: Cytokine levels (IL-6, KC, MIP-2) in serum and BAL of CLP septic mice by ELISA; type: in vivo, BALB/c mice; conditions: 0.5 mg IP at 90 min after surgery, 24 h
# Method: (§1) Cecal ligation and puncture (CLP) surgery was performed on BALB/c mice to induce sepsis as described previously (Fink, M. P. and Heard, S. O., J. Surg. Res. 49:186-96 (1990); Friedman, G., et al., Crit. Care Med. 26:2078-86 (1998); Remick, D., et al., Shock 4:89-95 (1995)). At 90 min after the surgery, 0.5 mg of either Z-VAD-FMK (VAD) caspase inhibitor or Z-FA-FMK control peptide was administered to each mouse by intraperitoneal injection. Mice were euthanized 24 h after CLP. HMGB1 protein levels in bronchoalveolar fluid (BAL), peritoneal fluid and serum were measured (FIG. 6). Protein levels of certain serum (e.g., IL-6, KC, MIP-2) and BAL (e.g., KC, MW-2) cytokines were determined (FIG. 7). Cell-conditioned medium, lung lavage fluid or peritoneal lavage fluid (100-2000) were first concentrated by passing through Centricon 10 (Millpore Corp. Bedford, Mass.). Cytokines were measured by using an enzyme-linked immunosorbent assay (ELISA) kit according to the instructions of the manufacturer (R & D System Inc., Minneapolis, Minn.). To determine HMGB1 concentrations, Centricon 10-filtered samples were fractionated by SDS-PAGE, transferred to PVDF Immunoblot membrane (Bio-Rad laboratories, Hercules, Calif.), and probed with polyclonal anti-HMGB1 IgG (5 μg/ml) for Western blot. Donkey anti-rabbit IgG conjugated with HRP (Amersham, Little Chalfont Buckinghamshire, England) and used at final dilution of 1:5,000. Polyclonal antibodies raised against purified HMGB1 were generated in rabbits (Cocalico Biologicals, Inc., Reamstown, Pa.) and IgG was purified using protein A agarose according to manufacturer's instructions (Pierce, Rockford, Ill.). Western blots were scanned with a silver image scanner ([…] Limited, Beaverton, Oreg.), and the relative band intensity was quantified by using the NIH image 1.59° software. The levels of HMGB1 were calculated with reference to standard curves generated with purified HMGB1.
# RAW 264.7 cells [1] = test: HMGB1 translocation in LPS-treated RAW 264.7 cells by immunofluorescence; type: cell-based, Murine; conditions: LPS 100 ng/ml, 1 μM, 16 hours
# Method: RAW 264.7 cells were plated in 8-well slide chambers (Lab-Tek, Nalge Nunc Internationals, Naperville, Ill.) and used at 60% confluence. Cells were incubated with LPS (100 ng/ml) alone, or LPS (100 ng/ml) with either 1 μM Z-VAD-FMK (VAD) or Z-FA-FMK control peptide for 16 hours in Opti-MEM I medium. Cells were washed 3 times with phosphate-buffered saline (PBS) at pH 7.2 and fixed in 2% neutral formalin for 20 minutes at room temperature. Polyclonal anti-HMGB1 antibody was added at a concentration of 2.5 μg/ml and incubated for an additional 30 minutes at room temperature. FITC-labeled anti-rabbit IgG was added (1:300 dilution, Sigma, St. Louis, Mo.; Cat. No. F9887). Cells were then washed 3 times with PBS (pH 7.2) with 0.1% saponin (Sigma Cat. #S4521), and mounted for fluorescent confocal microscopy analysis. To mount cells on a slide, one drop of VECTASHIELD mounting medium (Vector Lab, Cat#H-10000) was dispensed on to the section and allowed to cover the entire section. A coverslip was added, and the slides were imaged using a Zeiss, Axiovert 200 microscope (Gottingen, Germany).
# RAW 264.7 cells [2] = test: LPS-induced HMGB1 protein in RAW 264.7 cell supernatants by Western blot; type: cell-based, Murine; conditions: LPS 200 ng/ml, 0.1 to 10 μM, 16 h
# Method: Treatment of RAW 264.7 cells with caspase inhibitor and Western blotting of HMGB1. Murine macrophage-like RAW 264.7 cells (American Type Culture Collection, ATCC, Rockville, Md.) were cultured in a 24-well culture dish in RPMI 1640 medium (Life Technologies, Grand Island, N.Y.), supplemented with 10% fetal bovine serum (Gemini, Catabasas, Calif.), penicillin and streptomycin (Life Technologies). Cells were used at 90% confluence and treatment was carried out in serum-free Opti-MEM I medium (Life Technologies). The cells were treated with LPS (200 ng/ml, Sigma, E. coli. 0111:B4) and various concentrations, ranging from 0.1 to 10 μM, of either the caspase inhibitor, Z-VAD-FMK (BD Biosciences), or a control peptide, Z-FA-FMK (BD Biosciences), in Opti-MEM I medium (Life Technologies, Grand Island, N.Y.). After 16 h, cell culture supernatants were concentrated by Centricon 10 (Millpore Corp., Bedford, Mass.) and HMGB1 levels were determined by Western blot. […] Western blots were scanned with a silver image scanner (Silverscanner II, Lacie Limited, Beaverton, Oreg.), and the relative band intensity was quantified using the NIH image 1.59 software. The levels of HMGB1 were calculated with reference to standard curves generated with purified HMGB1.
# HMGB1 = HMGB1 protein levels in BAL, peritoneal fluid and serum of CLP septic mice; type: in vivo, BALB/c mice; conditions: 0.5 mg IP at 90 min after surgery, 24 h, BAL fluid
# Method: as §1, with “To determine HMGB1 concentrations, Centricon 10-filtered samples were fractionated by SDS-PAGE, transferred to PVDF Immunoblot membrane (Bio-Rad laboratories, Hercules, Calif.), and probed with polyclonal anti-HMGB1 IgG (5 μg/ml) for Western blot. Donkey anti-rabbit IgG conjugated with HRP (Amersham, Little Chalfont Buckinghamshire, England) and used at final dilution of 1:5,000. Polyclonal antibodies raised against purified HMGB1 were generated in rabbits (Cocalico Biologicals, Inc., Reamstown, Pa.) and IgG was purified using protein A agarose according to manufacturer's instructions (Pierce, Rockford, Ill.).” left out
# apoptotic cells = test: Caspase 3 and TUNEL staining of spleen and thymus sections of CLP septic mice; type: in vivo, BALB/c mice; conditions: 0.5 mg IP at 90 min after surgery, 24 h
# Method: Cecal ligation and puncture (CLP) surgery was performed on BALB/c mice to induce sepsis as described previously (Fink, M. P. and Heard, S. O., J. Surg. Res. 49:186-96 (1990); Friedman, G., et al., Crit. Care Med. 26:2078-86 (1998); Remick, D., et al., Shock 4:89-95 (1995)). At 90 min after the surgery, 0.5 mg of either Z-VAD-FMK (VAD) caspase inhibitor or Z-FA-FMK control peptide was administered to each mouse by intraperitoneal injection. Mice were euthanized 24 h after CLP.
# Apoptotic cells were detected by performing Caspase 3 staining (FIG. 8A) and TUNEL staining (FIG. 8B) on fixed spleen and thymus sections from sacrificed mice that were either untreated (Normal) or treated with Z-VAD-FMK (VAD) caspase inhibitor (CLP+VAD) or Z-FA-FMK control peptide (CLP+ctrl) following CLP surgery. […] mice were analyzed in each group. Tissue sections were cut at 5 μm. Sections were placed on glass slides and subjected to staining using a TUNEL assay, performed according to manufacturer's protocol (ApoAlert DNA fragmentation assay kit, BD BioSciences, Palo Alto, Calif., Cat# K2024-1). […] Four to five mice were analyzed from each group.
Compound,"IL-6 expression in septic mice (IL-6, KC, MIP-2)","KC expression in septic mice (IL-6, KC, MIP-2)","MIP-2 expression in septic mice (IL-6, KC, MIP-2)",HMGB1 translocation to the cytoplasm (RAW 264.7 cells [1]),LPS-induced expression of HMGB1 protein (RAW 264.7 cells [2]),HMGB1 expression in septic mice (HMGB1),number of apoptotic cells in spleen and thymus sections (apoptotic cells)
"COC(=O)CC(NC(=O)C(C)NC(=O)C(NC(=O)OCc1ccccc1)C(C)C)C(=O)CF (stereo not drawn) [Z-VAD-FMK, carbobenzoxyl-valyl-alanyl-aspartyl-[O-methyl]-fluoromethylketone] (Cbz-Val-Ala-Asp(OMe)-CH2F; configuration not given here)",inhibited expression,inhibited expression,inhibited expression,inhibited HMGB1 translocation to the cytoplasm,inhibited LPS-induced expression of HMGB1 protein in a dose-dependent manner,inhibited expression,reduced the number of apoptotic cells
CC(NC(=O)[C@H](Cc1ccccc1)NC(=O)OCc1ccccc1)C(=O)CF (some centres unmarked) [Z-FA-FMK],,,,,did not have an effect on HMGB1 expression,,
